Assay results from ChEMBL document CHEMBL4814040 (Bioorg Med Chem Lett, 2021).

How the values were obtained:
MAO-A = molecular target: T1, MAO-A (Homo sapiens, UniProt P21397); experiment: Inhibition of MAO-A (unknown origin) at 10 uM relative to control
T1 sequence (P21397 whole entry): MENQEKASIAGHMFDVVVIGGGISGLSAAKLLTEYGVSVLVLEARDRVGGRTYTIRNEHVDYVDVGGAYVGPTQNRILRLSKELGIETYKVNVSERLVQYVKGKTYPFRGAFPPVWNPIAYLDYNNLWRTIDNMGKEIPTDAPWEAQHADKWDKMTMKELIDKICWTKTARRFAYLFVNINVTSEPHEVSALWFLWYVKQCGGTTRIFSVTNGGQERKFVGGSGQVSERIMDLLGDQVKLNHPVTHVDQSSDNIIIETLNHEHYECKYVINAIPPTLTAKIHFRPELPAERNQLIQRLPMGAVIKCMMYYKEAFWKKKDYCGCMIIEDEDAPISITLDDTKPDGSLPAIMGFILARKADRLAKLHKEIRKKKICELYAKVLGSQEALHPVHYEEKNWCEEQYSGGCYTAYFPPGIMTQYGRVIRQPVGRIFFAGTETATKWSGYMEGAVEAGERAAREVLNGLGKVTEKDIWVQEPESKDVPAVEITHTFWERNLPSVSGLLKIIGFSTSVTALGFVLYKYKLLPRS

MAO-B = molecular target: T2, MAO-B (Homo sapiens, UniProt P27338); experiment: Inhibition of MAO-B (unknown origin) at 10 uM relative to control
T2 sequence (P27338 whole entry): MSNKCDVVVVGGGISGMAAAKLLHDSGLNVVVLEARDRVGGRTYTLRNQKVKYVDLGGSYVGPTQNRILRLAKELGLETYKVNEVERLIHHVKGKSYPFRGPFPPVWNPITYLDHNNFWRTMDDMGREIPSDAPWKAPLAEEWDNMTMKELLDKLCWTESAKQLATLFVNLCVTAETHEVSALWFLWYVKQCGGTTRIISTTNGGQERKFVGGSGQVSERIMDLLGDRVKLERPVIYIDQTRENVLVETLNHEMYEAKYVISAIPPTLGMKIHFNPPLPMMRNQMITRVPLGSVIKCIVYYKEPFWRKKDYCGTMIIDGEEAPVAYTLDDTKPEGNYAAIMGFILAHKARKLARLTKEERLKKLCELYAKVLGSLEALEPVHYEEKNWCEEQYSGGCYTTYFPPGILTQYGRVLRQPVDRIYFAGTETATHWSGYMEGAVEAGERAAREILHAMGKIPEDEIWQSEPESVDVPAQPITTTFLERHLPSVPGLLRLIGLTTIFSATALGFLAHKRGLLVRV

PC-3 = experiment: cells; settings: Homo sapiens, PC-3, read-out: INH
Description: Antiproliferative activity against human PC-3 cells assessed as cell growth inhibition at 16 uM relative to control

MCF7 = experiment: cells; settings: Homo sapiens, MCF7, read-out: INH
Description: Antiproliferative activity against human MCF7 cells assessed as cell growth inhibition at 16 uM relative to control

MGC-803 = experiment: cells; settings: Homo sapiens, MGC-803, read-out: INH
Description: Antiproliferative activity against human MGC803 cells assessed as cell growth inhibition at 16 uM relative to control

SGC-7901 = experiment: cells; settings: Homo sapiens, SGC-7901, read-out: INH
Description: Antiproliferative activity against human SGC7901 cells assessed as cell growth inhibition at 16 uM relative to control

inhibition at 10 µM (MAO-A) [%]	inhibition at 10 µM (MAO-B) [%]	Structure (SMILES)	inhibition at 16 µM (PC-3) [%]	inhibition at 16 µM (MCF7) [%]	inhibition at 16 µM (MGC-803) [%]	inhibition at 16 µM (SGC-7901) [%]
90	43	Fc1ccc([C@@H]2C[C@H]2NCc2cn(-c3cccc(C(F)(F)F)c3)nn2)cc1F	–	–	–	–
101	86	FC(F)(F)c1ccc(-n2cc(CN[C@@H]3C[C@H]3c3ccccc3)nn2)cc1	–	–	–	–
99	55	COc1ccc(-n2cc(CN[C@@H]3C[C@H]3c3ccccc3)nn2)cc1	–	–	–	–
101	82	Fc1ccc([C@@H]2C[C@H]2NCc2cn(-c3ccc(C(F)(F)F)cc3)nn2)cc1F	–	–	–	–
102	65	COc1cccc(-n2cc(CN[C@@H]3C[C@H]3c3ccc(F)c(F)c3)nn2)c1	–	–	–	–
89	48	COc1ccc(OC)c(-n2cc(CN[C@@H]3C[C@H]3c3ccc(F)c(F)c3)nn2)c1	21.8	33.6	24.5	27.7
100	64	COc1ccc(-n2cc(CN[C@@H]3C[C@H]3c3ccc(F)c(F)c3)nn2)cc1	25.2	37.3	16.3	42
101	94	FC(F)(F)c1cccc(-n2cc(CN[C@@H]3C[C@H]3c3ccccc3)nn2)c1	–	–	–	–
102	76	c1ccc([C@@H]2C[C@H]2NCc2cn(-c3ccccc3)nn2)cc1	–	–	–	–
92	88	FC(F)(F)c1cc(-n2cc(CN[C@@H]3C[C@H]3c3ccccc3)nn2)cc(C(F)(F)F)c1	–	–	–	–
90	51	COc1ccccc1-n1cc(CN[C@@H]2C[C@H]2c2ccc(F)c(F)c2)nn1	–	–	–	–
97	58	COc1ccc(OC)c(-n2cc(CN[C@@H]3C[C@H]3c3ccccc3)nn2)c1	–	–	–	–
93	42	COc1cc(OC)cc(-n2cc(CN[C@@H]3C[C@H]3c3ccc(F)c(F)c3)nn2)c1	–	–	–	–
91	44	COc1ccccc1-n1cc(CN[C@@H]2C[C@H]2c2ccccc2)nn1	–	–	–	–
93	54	COc1cccc(-n2cc(CN[C@@H]3C[C@H]3c3ccccc3)nn2)c1	–	–	–	–
91	35	Fc1ccc([C@@H]2C[C@H]2NCc2cn(-c3cc(C(F)(F)F)cc(C(F)(F)F)c3)nn2)cc1F	–	–	–	–
101	67	COc1cc(OC)cc(-n2cc(CN[C@@H]3C[C@H]3c3ccccc3)nn2)c1	–	–	–	–
